Source: paper PMC9414874, “New Benzimidazoles Targeting Breast Cancer: Synthesis, Pin1 Inhibition, 2D NMR Binding, and Computational Studies” (Molecules, 2022)
“And” between values parts separate entries of the source, which are not always exact repeats. Identical values can stand only once. Like-named read-outs stand apart in the source and are kept apart here.

Tests used:
MCF-7 = assay: MTT cytotoxicity assay against breast cancer cell line MCF-7; conditions: for Cytotoxic activity class against MCF-7: class by IC50
Method: All our newly synthesized hybrids were evaluated for their in vitro anticancer activity by the standard MTT assay against a breast cancer cell line (MCF-7). MTT is a calorimetric assay which relies on the ability of live tumor cells to reduce yellow MTT (3-(4,5-dimethylthiazol-2-yl)-2,5-diphenyltetrazolium bromide) to purple formazan by mitochondrial dehydrogenases, then added DMSO to dissolve the purple formazan and quantified by measuring absorbance at a certain wavelength. The dose response curve for compounds-treated vs. untreated cells is used to quantify the amount of formazan produced to report on the effectiveness of the compounds. […] Cell line: Mammary gland breast cancer (MCF-7). The cell line was obtained from ATCC via Holding company for biological products and vaccines (VACSERA), Cairo, Egypt. […] The cell line elucidated above were used to determine the inhibitory effects of compounds on cell growth using the MTT assay. […] After incubation, the cells were treated with different concentrations of compounds and incubated for an additional 24 h. After 24 h of drug treatment, 20 µL of MTT solution at 5 mg/mL was added and incubated for 4 h. […] The relative cell viability in percentage was calculated as (A570 of treated samples/A570 of the untreated sample) × 100 [48].

Pin1's PPIase activity = target: Pin1's PPIase activity; parameters: method as in PMID 19969456; conditions: read-out: IC50 of Pin1's PPIase activity inhibition; cited from earlier work
Pin1 [1] = target: T1, Pin1 (Homo sapiens, UniProt Q13526); assay: Pin1 inhibition assay (SensoLyte Green Pin1 Assay Kit); format: biochemical; parameters: purchased; conditions: for inhibition at 0.0001 µg/mL: conc 0.1 ng/ml; for inhibition at 0.0001 µg/mL / inhibition at 0.001 µg/mL / inhibition at 0.01 µg/mL / inhibition at 0.1 µg/mL: read-out: Pin1 %inh; for inhibition at 0.001 µg/mL: conc 1 ng/ml; for inhibition at 0.01 µg/mL: conc 10 ng/ml; for inhibition at 0.1 µg/mL: conc 100 ng/ml; for IC50: means ± SD of three experiments
Method: The ability of the synthesized compounds to inhibit the Pin1 activity was evaluated using the SensoLyte® Green Pin1 Assay Kit. This assay is based on using a fluorogenic substrate which was pretreated to convert it into the cis isomer. Pin1 can change this substrate into the trans isomer that is easily cleaved to generate a fluorescent signal.

[2] = In vitro cytotoxicity against normal Human lung fibroblast (WI38) cell line; format: cell-based; conditions: human, WI38 normal lung fibroblast cells
Pin1 [3] = target: T1, Pin1; assay: 2D 15N-1H HSQC NMR binding to 15N-labeled Pin1; parameters: Backbone and side-chain chemical shift assignments of full-length, apo, human Pin1; made in house; conditions: Pin1 200 µM, compound 1 mM, 5% DMSO
From the text: Herein, ^15N-labeled Pin1 enzyme is used where we recorded HSQC spectra of the protein alone and in the presence of an excess amount of one of the newly synthesized compounds. The main challenge we faced in our research was the compound solubility in a balanced mixture of the protein aqueous buffer. Although our compound was freely soluble in DMSO, it is inapplicable to use pure DMSO to dissolve the protein because this will result in protein denaturation and probably aggregation. Therefore, only one compound was tested where we were able to dissolve it partially in a mixture of 95% buffer and 5% DMSO. In addition, as a control, the spectrum was recorded only in presence of DMSO and compared to the ones with the ligand. The proportion of Pin1 to the compounds was adjusted to be […]. […] Chemical shift perturbation and peak shifting are indicative of fast exchange between free and bound states which results in peak positions averaging. […] This peak disappearing indicated exchange on the μs–ms time scale (Figure 1). Furthermore, our NMR results have been verified using cell lines.
The expression and purification of ^15N-labeled Pin1 was performed according to the known protocol. The enzyme sample reached a final concentration of 200 µM in PBS buffer at pH = 6.5. Compound number 12 was dissolved in DMSO and added to the protein to achieve a final concentration of 1 mM in the NMR tube. […]

[4] = Homo sapiens, MCF7, 24 h, read-out: In Vitro Cytotoxicity IC50 MCF-7, MTT assay, 24 h treatment
[5] = Homo sapiens, MCF7, read-out: IC50 against breast cancer cell line (MCF-7), MTT assay, section 2.2

T1 sequence (Q13526 whole entry): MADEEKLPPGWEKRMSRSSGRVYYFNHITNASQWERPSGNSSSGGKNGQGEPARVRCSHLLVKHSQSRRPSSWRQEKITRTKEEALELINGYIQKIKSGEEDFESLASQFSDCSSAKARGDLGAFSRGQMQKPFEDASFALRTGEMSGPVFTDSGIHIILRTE

| Molecule | melting point [°C] | IC50 (MCF-7; [4]) [µM] | Cytotoxic activity class against MCF-7 (MCF-7) | further results |
| --- | --- | --- | --- | --- |
| CN(C)c1ccc(C2C=C(c3nc4cc(Cl)c(Cl)cc4[nH]3)OC(N)=C2C#N)cc1 (stereo not shown) [Compound 7, 2-Amino-6-(5,6-dichloro-1H-benzo[d]imidazol-2-yl)-4-(4-(dimethylamino)phenyl)-4H-pyran-3-carbonitrile] | 150 | 21 ± 1.8 | moderate (21–50 (moderate)) |  |
| O=C(O)c1cc2ccccc2[nH]1 [Indole-2-carboxylic acid (I), Indole-2-carboxylic acid] |  |  |  | IC50 (Pin1's PPIase activity): 16 µM |
| CC(O)c1nc2cc(Cl)c(Cl)cc2[nH]1 (stereo not shown) [Compound 2] |  |  |  | inhibition at 0.0001 µg/mL (Pin1 [1]): 39.2%; inhibition at 0.001 µg/mL (Pin1 [1]): 51.1%; inhibition at 0.01 µg/mL (Pin1 [1]): 67%; inhibition at 0.1 µg/mL (Pin1 [1]): 85.2% |
| CN(C)c1ccc(/C=C/C(=O)c2nc3cc(Cl)c(Cl)cc3[nH]2)cc1 [Compound 4, (E)-1-(5,6-Dichloro-1H-benzo[d]imidazol-2-yl)-3-(4-(dimethylamino)phenyl)prop-2-en-1-one] | 258 to 260 | 26.9 | moderate (21–50 (moderate)) | IC50 (MCF-7; read-out: In Vitro Cytotoxicity IC50 MCF-7, MTT assay, 24 h treatment): 26.8 ± 2.1 µM |
| Tannic acid [reference compound] |  |  |  | IC50 (Pin1 [1]): 0.000535 µM and 0.00053 µM |
| 2-(4-Bromophenyl)-7,8-dichlorobenzo[4,5]imidazo[1,2-a]pyridin-4-ol [Compound 14] |  |  |  | IC50 (MCF-7): 46 ± 2.9 µM |
| CN(C)c1ccc(-c2cc(-c3nc4cc(Cl)c(Cl)cc4[nH]3)nc(N)c2C#N)cc1 [Compound 6, 2-Amino-6-(5,6-dichloro-1H-benzo[d]imidazol-2-yl)-4-(4-(dimethylamino)phenyl)nicotinonitrile] | 168 to 170 | 15.4 ± 1.3 | strong (11–20 (strong)) | IC50 (MCF-7; [5]): 15.5 µM |
| CN(C)c1ccc(C2=NN=C(c3nc4cc(Cl)c(Cl)cc4[nH]3)C2)cc1 [Compound 5, 4-(5-(5,6-Dichloro-1H-benzo[d]imidazol-2-yl)-4H-pyrazol-3-yl)-N,N-dimethylaniline] | 216 | 11.7 ± 0.9 | strong (11–20 (strong)) | IC50 (MCF-7; [5]): 11.8 µM; IC50 at 24 h [2]: 67.9 ± 3.6 µM; IC50 (Pin1 [1]): 0.00064 ± 3e-05 µM |

Now from value to molecule, other results behind:

| melting point [°C] | Molecule | IC50 (MCF-7; [4]) [µM] | Cytotoxic activity class against MCF-7 (MCF-7) | further results |
| --- | --- | --- | --- | --- |
| 85 | C=C1c2nc3cc(Cl)c(Cl)cc3n2C=C(c2ccc(Br)cc2)N1Cc1ccccc1 [Compound 12, 2-Benzyl-3-(4-bromophenyl)-7,8-dichloro-1-methylene-1,2-dihydrobenzo[4,5]imidazo[1,2-a]pyrazine] | 31.3 ± 2.5 | moderate (21–50 (moderate)) | IC50 at 24 h [2]: 45.7 ± 2.8 µM; Binding to Pin1 by HSQC spectra overlay (Pin1 [3]): chemical shift perturbation and peak disappearance; IC50 (Pin1 [1]): 0.00111 µM and 0.0011 µM |
| 106 | C=C1c2nc3cc(Cl)c(Cl)cc3n2C=C(c2ccc(Br)cc2)N1c1ccccc1C [Compound 11, 3-(4-Bromophenyl)-7,8-dichloro-1-methylene-2-(o-tolyl)-1,2-dihydrobenzo[4,5]imidazo[1,2-a]pyrazine] | 38 ± 2.7 | moderate (21–50 (moderate)) |  |
| 290 | Cc1nc(-c2ccc(Br)cc2)cn2c1nc1cc(Cl)c(Cl)cc12 [Compound 13, 3-(4-Bromophenyl)-7,8-dichloro-1-methylbenzo[4,5]imidazo[1,2-a]pyrazine] | 71.8 ± 3.8 | weak (51–100 (weak)) | IC50 (MCF-7; [5]): 71.9 µM |
| 322 | CC(=O)c1nc2cc(Cl)c(Cl)cc2n1CC(=O)c1ccc(Br)cc1 [Compound 9, 2-(2-Acetyl-5,6-dichloro-1H-benzo[d]imidazol-1-yl)-1-(4-bromophenyl)ethan-1-one] | 63.9 ± 3.4 |  | inhibition at 0.0001 µg/mL (Pin1 [1]): 34.7%; inhibition at 0.001 µg/mL (Pin1 [1]): 42.2%; inhibition at 0.01 µg/mL (Pin1 [1]): 69.5%; inhibition at 0.1 µg/mL (Pin1 [1]): 87.5% |
| 211 | C=C1c2nc3cc(Cl)c(Cl)cc3n2C=C(c2ccc(Br)cc2)N1c1ccc(C)cc1 [Compound 10, 3-(4-Bromophenyl)-7,8-dichloro-1-methylene-2-(p-tolyl)-1,2-dihydrobenzo[4,5]imidazo[1,2-a]pyrazine] | 53 ± 3.1 | weak (51–100 (weak)) |  |
